Reference: BindingDB's records for doi:10.7270/Q21V5H4F (n/a, 1992)

Molecular target: HIV-1 RT (reverse transcriptase)
Assay: Inhibitory concentration against HIV-1 RT was determined

IC50: 115 nM
Compound: O=C(C[C@H]1C(=O)Nc2ccccc2-c2cccn21)OCc1ccccc1
